In PubChem BioAssay AID1963841 (Molecular Pharmacology Branch, DTP, NCI, 2024):

Tested on: 439559-082-T-J2-PDC spheroid viability
Test: Anticancer human tumor 439559-082-T-J2-PDC patient-derived colon adenocarcinoma cell line growth inhibition [POLQ]
Settings: spheroids with HUVEC and MSC; for IC50: curve of first compound; for viability, T/C: stronger effect = lower value
Procedure, shortened: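 PDC + HUVEC + MSC complex spheroids; POLQ inhibitors ± partner drugs; top conc. at/near clinical Cmax, else 10 microM (SN-38 1 microM), half-log dilutions; 37 degrees C, 5% CO2.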

[1] = second compound 0.0316 µM, first compound 0.0316 µM
[2] = second compound 0.0316 µM, first compound 0.1 µM
[3] = second compound 0.0316 µM, first compound 0.316 µM
[4] = second compound 0.0316 µM, first compound 1 µM
[5] = second compound 0.0316 µM, first compound 3.16 µM
[6] = second compound 0.0316 µM, first compound 10 µM
[7] = second compound 0.1 µM, first compound 0.0316 µM
[8] = second compound 0.1 µM, first compound 0.1 µM
[9] = second compound 0.1 µM, first compound 0.316 µM
[10] = second compound 0.1 µM, first compound 1 µM
[11] = second compound 0.1 µM, first compound 3.16 µM
[12] = second compound 0.1 µM, first compound 10 µM
[13] = second compound 0.316 µM, first compound 0.0316 µM
[14] = second compound 0.316 µM, first compound 0.1 µM
[15] = second compound 0.316 µM, first compound 0.316 µM
[16] = second compound 0.316 µM, first compound 1 µM
[17] = second compound 0.316 µM, first compound 3.16 µM
[18] = second compound 0.316 µM, first compound 10 µM
[19] = second compound 1 µM, first compound 0.0316 µM
[20] = second compound 1 µM, first compound 0.1 µM
[21] = second compound 1 µM, first compound 0.316 µM
[22] = second compound 1 µM, first compound 1 µM
[23] = second compound 1 µM, first compound 3.16 µM
[24] = second compound 1 µM, first compound 10 µM
[25] = second compound 3.16 µM, first compound 0.0316 µM
[26] = second compound 3.16 µM, first compound 0.1 µM
[27] = second compound 3.16 µM, first compound 0.316 µM
[28] = second compound 3.16 µM, first compound 1 µM
[29] = second compound 3.16 µM, first compound 3.16 µM
[30] = second compound 3.16 µM, first compound 10 µM
[31] = second compound 10 µM, first compound 0.0316 µM
[32] = second compound 10 µM, first compound 0.1 µM
[33] = second compound 10 µM, first compound 0.316 µM
[34] = second compound 10 µM, first compound 1 µM
[35] = second compound 10 µM, first compound 3.16 µM
[36] = second compound 10 µM, first compound 10 µM
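Also: spheroids exposed to compounds for seven days before readout.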
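For viability, T/C in this document: 100% = DMSO vehicle control viability.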

With `CC(C)n1c(=O)n(C)c2cnc3cc(F)c(-c4ccc(OCCCN5CCCCC5)nc4)cc3c21` + COC1C(OC(N)=O)C(O)C(Oc2ccc3c(O)c(NC(=O)c4ccc(O)c(CC=C(C)C)c4)c(=O)oc3c2C)OC1(C)C the IC50 (second compound 0.0316 µM) was greater than 10000 nM, the IC50 (second compound 0.1 µM) was greater than 10000 nM and the IC50 (second compound 0.316 µM) was greater than 10000 nM. It also gave an IC50 (second compound 1 µM) greater than 10000 nM, an IC50 (second compound 3.16 µM) greater than 10000 nM and an IC50 (second compound 10 µM) greater than 10000 nM. It also gave a viability, T/C [1] of 97.8%, a viability, T/C [2] of 102% and a viability, T/C [3] of 109%. For the same compound, the viability, T/C [4] was 116%, the viability, T/C [5] was 113% and the viability, T/C [6] was 102%. The viability, T/C [7] was 111%, the viability, T/C [8] was 109% and the viability, T/C [9] was 110%. The viability, T/C [10] was 119%, the viability, T/C [11] was 102% and the viability, T/C [12] was 99.4%. It also gave a viability, T/C [13] of 119%, a viability, T/C [14] of 109% and a viability, T/C [15] of 109%. It also gave a viability, T/C [16] of 112%, a viability, T/C [17] of 107% and a viability, T/C [18] of 91.2%. It also gave a viability, T/C [19] of 110%, a viability, T/C [20] of 111% and a viability, T/C [21] of 111%. The viability, T/C [22] was 109%, the viability, T/C [23] was 110% and the viability, T/C [24] was 95%. It also gave a viability, T/C [25] of 105%, a viability, T/C [26] of 107% and a viability, T/C [27] of 106%. It also gave a viability, T/C [28] of 112%, a viability, T/C [29] of 111% and a viability, T/C [30] of 97.6%. It also gave a viability, T/C [31] of 103%, a viability, T/C [32] of 96.9% and a viability, T/C [33] of 106%. It also gave a viability, T/C [34] of 106%, a viability, T/C [35] of 113% and a viability, T/C [36] of 102%.

`CC1COCCN1c1cc(-c2ccnn2C)c2ccnc(-c3ccn[nH]3)c2n1` (centres undefined) + COC1C(OC(N)=O)C(O)C(Oc2ccc3c(O)c(NC(=O)c4ccc(O)c(CC=C(C)C)c4)c(=O)oc3c2C)OC1(C)C gave an IC50 (second compound 0.0316 µM) of 257 nM, an IC50 (second compound 0.1 µM) of 299 nM and an IC50 (second compound 0.316 µM) of 353 nM. For the same compound, the IC50 (second compound 1 µM) was 274 nM, the IC50 (second compound 3.16 µM) was 276 nM and the IC50 (second compound 10 µM) was 298 nM. It also gave a viability, T/C [1] of 85.6%, a viability, T/C [2] of 66.5% and a viability, T/C [3] of 44.7%. The viability, T/C [4] was 42%, the viability, T/C [5] was 23.3% and the viability, T/C [6] was 37%. For the same compound, the viability, T/C [7] was 82.8%, the viability, T/C [8] was 75.4% and the viability, T/C [9] was 47.4%. The viability, T/C [10] was 41.3%, the viability, T/C [11] was 27% and the viability, T/C [12] was 38.9%. For the same compound, the viability, T/C [13] was 92.5%, the viability, T/C [14] was 77.4% and the viability, T/C [15] was 49.5%. The viability, T/C [16] was 43.1%, the viability, T/C [17] was 25.2% and the viability, T/C [18] was 39.4%. The viability, T/C [19] was 92.1%, the viability, T/C [20] was 75.2% and the viability, T/C [21] was 44.9%. For the same compound, the viability, T/C [22] was 41.9%, the viability, T/C [23] was 24.2% and the viability, T/C [24] was 39.7%. For the same compound, the viability, T/C [25] was 94.3%, the viability, T/C [26] was 72.1% and the viability, T/C [27] was 45.1%. The viability, T/C [28] was 42.4%, the viability, T/C [29] was 25.2% and the viability, T/C [30] was 37.7%. For the same compound, the viability, T/C [31] was 88%, the viability, T/C [32] was 78.5% and the viability, T/C [33] was 46.4%. The viability, T/C [34] was 42.9%, the viability, T/C [35] was 25.4% and the viability, T/C [36] was 37.2%.
